Where two headings read alike, the source gives them in different places.
What was measured:
[1] = type: physicochemical; conditions: hang-bag, 24 hours
Procedure: Topotecan diluted in saline (10 ug/ml or 500 ug/ml) or dextrose (6.7 ug/ml or 330 ug/ml) is stable in a hang-bag for 24 hours with at least 95% recovery.

[2] = tested on: non-small cell lung carcinoma; conditions: humans, sole chemotherapeutic agent; cited from earlier work
esophageal cancer = conditions: humans, sole chemotherapeutic agent; cited from earlier work
[3] = type: physicochemical; conditions: plastic bags, room temperature
Procedure: Stability - Shelf life surveillance of the intact vials is ongoing. Because the single-use lyophilized dosage form contains no antibacterial preservatives, it is advised that the reconstituted solution be discarded eight hours after initial entry into the vial. Further dilutions of the reconstituted solution to concentrations of 0.02 mg/ml and 0.1 mg. ml in 5% Dextrose Injection, USP, ("D5W") or 0.9% Sodium Chloride Injection, USP, ("NS") in plastic bags stored at room temperature yielded the following stability results:
Percentage of Initial Topotecan Remaining in Solution

ovarian cancer = conditions: humans, sole chemotherapeutic agent; cited from earlier work
[4] = in words; cited from earlier work
DNA topoisomerase I = conditions: background statement; cited from earlier work

CC[C@@]1(O)C(=O)OCc2c1cc1n(c2=O)Cc2cc3c(CN(C)C)c(O)ccc3nc2-1 [Topotecan, (S)-10[(dimethylamino)methyl]-4-ethyl-4,9-dihydroxy-IH-pyrano[3',4':6,7]indolizino[1,2-b]quinolone-3,14(4H,12H)-dione]
recovery ([1]; dextrose (6.7 ug/ml or 330 ug/ml)): at least 95%
recovery ([1]; saline (10 ug/ml or 500 ug/ml)): at least 95%
clinical efficacy [2]: shown clinical efficacy
clinical efficacy (esophageal cancer): shown clinical efficacy
Percentage of Initial Topotecan Remaining in Solution ([3]; D5W (5% Dextrose Injection, USP), 0.02 mg/ml, 0 hrs): 100.00 Percentage
Percentage of Initial Topotecan Remaining in Solution ([3]; D5W (5% Dextrose Injection, USP), 0.1 mg/ml, 0 hrs): 100.00 Percentage
Percentage of Initial Topotecan Remaining in Solution ([3]; NS (0.9% Sodium Chloride Injection, USP), 0.02 mg/ml, 0 hrs): 100.00 Percentage
Percentage of Initial Topotecan Remaining in Solution ([3]; NS (0.9% Sodium Chloride Injection, USP), 0.1 mg/ml, 0 hrs): 100.00 Percentage
Percentage of Initial Topotecan Remaining in Solution ([3]; NS (0.9% Sodium Chloride Injection, USP), 0.1 mg/ml, 6 hrs): 97.71 Percentage
Percentage of Initial Topotecan Remaining in Solution ([3]; NS (0.9% Sodium Chloride Injection, USP), 0.1 mg/ml, 24 hrs): 98.30 Percentage
Percentage of Initial Topotecan Remaining in Solution ([3]; NS (0.9% Sodium Chloride Injection, USP), 0.1 mg/ml, 48 hrs): 98.35 Percentage
clinical efficacy (ovarian cancer): shown clinical efficacy
water solubility [4]: water-soluble
inhibition of DNA topoisomerase I (DNA topoisomerase I): specific inhibitor of DNA topoisomerase I

— US5633016A, “Combination chemotherapy” (SmithKline Beecham Corporation, priority 1995, dated 1997)
